# In ChEMBL document CHEMBL1221408, “Cylindrocyclophanes with proteasome inhibitory activity from the Cyanobacterium Nostoc sp” (J Nat Prod, 2010):
# Key:
# [1] = Inhibition of 20S proteasome
# HT-29 = experiment: Cytotoxicity against human HT-29 cells; assay type: functional, cell-based
SMILES,IC50 [1],EC50 (HT-29)
CCCC[C@H]1CCCC[C@H](C)[C@@H](O)c2cc(O)c(c(O)c2)[C@@H](CCCCCl)CCCC[C@H](C)[C@@H](O)c2cc(O)c1c(O)c2 [CYLINDROCYCLOPHANE A1],27600 nM,
CCCC[C@H]1CCCC[C@H](C)[C@@H](O)c2cc(O)c(c(O)c2)[C@@H](CCCC(Cl)Cl)CCCC[C@H](C)[C@@H](O)c2cc(O)c1c(O)c2 [CYLINDROCYCLOPHANE A2],2550 nM,1700 nM
C[C@H]1CCCC[C@H](CCCCCl)c2c(O)cc(cc2O)[C@H](O)[C@@H](C)CCCC[C@H](CCCC(Cl)Cl)c2c(O)cc(cc2O)[C@@H]1O [CYLINDROCYCLOPHANE A3],2750 nM,500 nM
C[C@H]1CCCC[C@H](CCCC(Cl)Cl)c2c(O)cc(cc2O)[C@H](O)[C@@H](C)CCCC[C@H](CCCC(Cl)Cl)c2c(O)cc(cc2O)[C@@H]1O [CYLINDROCYCLOPHANE A4],3930 nM,2000 nM
C[C@H]1CCCC[C@H](CCCC(Br)Br)c2c(O)cc(cc2O)[C@H](O)[C@@H](C)CCCC[C@H](CCCC(Br)Br)c2c(O)cc(cc2O)[C@@H]1O [CYLINDROCYCLOPHANE AB4],2230 nM,500 nM
CCCC[C@H]1CCCC[C@H](C)[C@@H](O)c2cc(O)c(c(O)c2)[C@@H](CCCC)CCCC[C@H](C)[C@@H](O)c2cc(O)c1c(O)c2 [CYLINDROCYCLOPHANE A],33900 nM,
CCCC[C@H]1CCCC[C@H](C)Cc2cc(O)c(c(O)c2)[C@@H](CCCC(Cl)Cl)CCCC[C@H](C)[C@@H](O)c2cc(O)c1c(O)c2 [CYLINDROCYCLOPHANE C2],22800 nM,900 nM
C[C@H]1CCCC[C@H](CCCC(Cl)Cl)c2c(O)cc(cc2O)[C@H](O)[C@@H](C)CCCC[C@H](CCCC(Cl)Cl)c2c(O)cc(cc2O)C1 [CYLINDROCYCLOPHANE C4],11200 nM,2800 nM
CCCC[C@H]1CCCC[C@H](C)Cc2cc(O)c(c(O)c2)[C@@H](CCCC)CCCC[C@H](C)[C@@H](O)c2cc(O)c1c(O)c2 [CYLINDROCYCLOPHANE C],59300 nM,
C[C@H]1CCCC[C@H](CCCC(Cl)Cl)c2c(O)cc(cc2O)C[C@@H](C)CCCC[C@H](CCCC(Cl)Cl)c2c(O)cc(cc2O)C1 [CYLINDROCYCLOPHANE F4],44800 nM,
CCCC[C@H]1CCCC[C@H](C)Cc2cc(O)c(c(O)c2)[C@@H](CCCC)CCCC[C@H](C)Cc2cc(O)c1c(O)c2 [CYLINDROCYCLOPHANE F],> 100000 nM,
